Here are results for one compound from patent US20070219180A1, “Muscle Relaxtion Accelerator and Therapeutic Agent for Muscular Tissue Diseases Such as Muscle Relaxation Failure” (priority 2004, published 2007).

The test system of this experiment is male Wistar rats. Kind of experiment: Experiment 1: left ventricular end diastolic pressure in rats under calcium chloride and norepinephrine infusion. Format: in vivo, rat. Here is the method:
In Experiment 1, the hydrochloride of 4-[3-(4-benzylpiperidine-1-yl) propionyl]-7-methoxy-2,3,4,5-tetrahydro-1,4-benzothiazepine, the compound in the invention (hereinafter called the compound), was used as a pharmaceutically acceptable salt of the 1,4-benzothiazepine derivative. Eight-week old male Wistar rats weighing 300-330 g were used in the study. The rats were anesthetized with 1,000 mg/kg of urethane and 80 mg/kg of α-chloralose by subperitoneal injection, and natural respiration was maintained. In this experiment, 100 mg of the compound was dissolved in 1 ml of dimethylsulfoxide (DMSO) and the resulting DMSO solution of the compound was stored at 4° C. Norepinephrine solution was prepared by dissolving 1 mg of norepinephrine in 41 μl of distilled water, at an infusion speed of 40 μg/kg/min.
Firstly, continuous infusion catheters of calcium chloride solution or norepinephrine solution containing calcium chloride were inserted into the right external jugular veins of the rats, and microchip catheters (SPC-320, Millar) were inserted into the left ventricles via the right common arteries. In addition, test drug infusion catheters were inserted into the right femoral veins.
A 1-lead electrocardiogram and the left ventricular pressure were recorded simultaneously on a personal computer via an A/D converter. In order to determine the left ventricular end diastolic pressure, a pressure equivalent to the R wave of the electrocardiogram was measured at 20 heart beats every minute, and the mean of the pressure so measured was determined as the left ventricular end diastolic pressure, at the time of measuring. In the preparation step, blood pressure, pulse, and electrocardiogram of the rats were monitored for 15 minutes and allowed to stabilize, and then 5% dextrose solution containing calcium chloride (at a concentration based on the weight of the rat) was infused into the right external jugular vein for 20 minutes at 16.6 μl/min (9.0 mg/kg/min of calcium chloride).
Secondly, norepinephrine solution containing calcium chloride without changes in dosage was immediately injected at a rate of 40 μg/kg/min via the right external jugular vein. After the start of the administration, calcium chloride and norepinephrine were then continuously injected in the form of a norepinephrine solution containing calcium chloride. With continuous injection of calcium chloride and norepinephrine (in the form of a norepinephrine solution containing calcium chloride) via the right external jugular vein, 0.2 ml of […] was administered over 30 seconds to the first rat (weight: 300 g) as a control via the right femoral vein, 5 minutes after commencement of injection (intravenous injection) of calcium chloride and norepinephrine (in the form of a norepinephrine solution containing calcium chloride) via the right external jugular vein; this rat was defined as Control 1. Similarly to Control 1, with continuous injection of calcium chloride and norepinephrine (in the form of a norepinephrine solution containing calcium chloride) via the right external jugular vein, 0.2 ml of 1% DMSO solution as a solvent control was administered over 30 seconds to a second rat (weight: 310 g) via the right femoral vein, 5 minutes after commencement of injection (intravenous injection) via the right external jugular vein of calcium chloride and norepinephrine (in the form of a norepinephrine solution containing calcium chloride); this rat was defined as Control 2. […]

As for `COc1ccc2c(c1)CN(C(=O)CCN1CCC(Cc3ccccc3)CC1)CCS2` [the compound, 4-[3-(4-benzylpiperidine-1-yl)propionyl]-7-methoxy-2,3,4,5-tetrahydro-1,4-benzothiazepine], under “15 minutes after commencement of the test drug, Test drugs 1 and 2”, the “Left ventricular diastolic pressure compared with Controls 1 and 2 at the same time point” value is “less than half those in Controls 1 and 2”. Besides, the “Left ventricular end diastolic pressure” value by setting is: (Test drug 1: 0.3 mg/kg i.v. over 30 s + 0.02 mg/kg/min to 15 min, 0 minutes (just before the start of test drug administration)) 8.9 mmHg; (Test drug 1: 0.3 mg/kg i.v. over 30 s + 0.02 mg/kg/min to 15 min, 5 minutes before test drug (just before the start of norepinephrine), baseline) 8.6 mmHg; (Test drug 1: 0.3 mg/kg i.v. over 30 s + 0.02 mg/kg/min to 15 min, 10 minutes before test drug (15 minutes after the start of CaCl2), baseline) 8.5 mmHg; (Test drug 1: 0.3 mg/kg i.v. over 30 s + 0.02 mg/kg/min to 15 min, 15 minutes before test drug (10 minutes after the start of CaCl2), baseline) 8.6 mmHg; (Test drug 1: 0.3 mg/kg i.v. over 30 s + 0.02 mg/kg/min to 15 min, 20 minutes before test drug (5 minutes after the start of CaCl2), baseline) 7.9 mmHg; (Test drug 1: 0.3 mg/kg i.v. over 30 s + 0.02 mg/kg/min to 15 min, 25 minutes before test drug (just after the start of CaCl2), baseline) 7.8 mmHg. The “Left ventricular end diastolic pressure” value reads like this: (Test drug 1: 0.3 mg/kg i.v. over 30 s + 0.02 mg/kg/min to 15 min, CaCl2 + norepinephrine infusion, 5 minutes after the start of test drug administration) 10.6 mmHg; (Test drug 1: 0.3 mg/kg i.v. over 30 s + 0.02 mg/kg/min to 15 min, CaCl2 + norepinephrine infusion, 10 minutes after the start of test drug administration) 12.5 mmHg; (Test drug 1: 0.3 mg/kg i.v. over 30 s + 0.02 mg/kg/min to 15 min, CaCl2 + norepinephrine infusion, 15 minutes after the start of test drug administration) 11.8 mmHg; (Test drug 1: 0.3 mg/kg i.v. over 30 s + 0.02 mg/kg/min to 15 min, CaCl2 + norepinephrine infusion, 30 minutes before test drug (5 minutes before the start of CaCl2), baseline) 7.5 mmHg; (Test drug 2: 0.3 mg/kg i.v. over 30 s only, 0 minutes (just before the start of test drug administration)) 9.6 mmHg; (Test drug 2: 0.3 mg/kg i.v. over 30 s only, 5 minutes before test drug (just before the start of norepinephrine), baseline) 9.3 mmHg. In addition, the “Left ventricular end diastolic pressure” value (Test drug 2: 0.3 mg/kg i.v. over 30 s only, 10 minutes before test drug (15 minutes after the start of CaCl2), baseline) is 9.0 mmHg; the “Left ventricular end diastolic pressure” value (Test drug 2: 0.3 mg/kg i.v. over 30 s only, 15 minutes before test drug (10 minutes after the start of CaCl2), baseline) stood at 9.2 mmHg; the “Left ventricular end diastolic pressure” value (Test drug 2: 0.3 mg/kg i.v. over 30 s only, 20 minutes before test drug (5 minutes after the start of CaCl2), baseline) came out at 8.8 mmHg; the “Left ventricular end diastolic pressure” value (Test drug 2: 0.3 mg/kg i.v. over 30 s only, 25 minutes before test drug (just after the start of CaCl2), baseline) is listed as 8.6 mmHg; the “Left ventricular end diastolic pressure” value (Test drug 2: 0.3 mg/kg i.v. over 30 s only, CaCl2 + norepinephrine infusion, 5 minutes after the start of test drug administration) worked out at 13.8 mmHg; the “Left ventricular end diastolic pressure” value (Test drug 2: 0.3 mg/kg i.v. over 30 s only, CaCl2 + norepinephrine infusion, 10 minutes after the start of test drug administration) amounted to 16.4 mmHg. The “Left ventricular end diastolic pressure” value (Test drug 2: 0.3 mg/kg i.v. over 30 s only, CaCl2 + norepinephrine infusion, 15 minutes after the start of test drug administration) is reported as 15.3 mmHg and the “Left ventricular end diastolic pressure” value (Test drug 2: 0.3 mg/kg i.v. over 30 s only, CaCl2 + norepinephrine infusion, 30 minutes before test drug (5 minutes before the start of CaCl2), baseline) was found to be 8.4 mmHg.
